# Data from patent US20160050920A1, “METHODS TO IMPROVE NODAL ROOTS” (Valent BioSciences Corporation, priority 2014, published 2016).
# Legend:
# Type in all cases: in vivo
# [1] = test system: Hybrid corn; experiment: Example 1: potted hybrid corn, newest nodal roots after GA3 foliar spray
# Text: Hybrid corn seed was planted 3.8 centimeters (cm) deep on three separate dates in Miracle-Gro Potting Mix (Miracle-Grois a registered trademark owned by OMS Investments, Inc., Miracle-Gro Potting Mix is widely available at retail home improvement stores) in 2.5 gallon pots. The pots were filled with 0.007 cubic meters of potting mix. The seeds/plants were watered as needed. The second planting was 10 days after the first planting and the third planting was nine days after the second planting. The plants were treated with 0, 8.4 g ai/hectare, or 16.8 g ai/hectare of GA3 as formulated in RyzUp SmartGrass° (available from Valent BioSciences Corp.) using a TeeJet® 8002 VS spray tip on a manual sprayer set at 15 gallons per acre. Distilled water was used and non-ionic surfactant (0.25% v/v). The treatments were applied on the same day which was 28 days after the first planting (corn was at V6 stage), 18 days after the second planting (corn was at V3 or V4 stages), and 9 days after the third planting (corn was at V1 stage). Crop Heat Units are a way of calculating growth and are calculated on a daily basis, using the maximum (Tmax) and minimum (Tmin) daily air temperatures, measured from midnight to midnight, in degrees Celsius. The Crop Heat Unit (CHU) system uses the following equation which allows growers to more accurately predict the growth of crops compared to using calendar days: Tmax+Tmin÷2−Tbase, wherein Tbase is the base temperature for the crop. During this study, there were a few days following the treatments with temperatures exceeding 24 degrees Celsius and the nights dipped below 10 degrees Celsius. The week immediately following treatment, there was one day above 24 degrees Celsius, each night dipped below 10 degrees Celsius. […] The growth rate of corn also declines when temperatures are above 30 degrees Celsius. In this study, there was an average of 10 CHUs per day following treatment and a total of 83CHUs. The corn was harvested at 1, 2, and 3 weeks after treatment. The plants were washed and roots were separated from shoots.
# [2] = test system: Hybrid corn; experiment: Example 4: field study, number and dry weight of roots in two corn hybrids; set-up: Dry weight of nodes 1 to 3 / Dry weight of nodes 4 to 7 / Total dry weight: unit not given here
# Experimental: Another field study was conducted in order to determine the effects of GA3 on root development. Two types of hybrid corn seeds were planted during the spring season. The plants were treated with 0 or 2.75g ai/hectare of GA3 as formulated in RyzUp SmartGrass® using a TeeJet° 8002 VS spray tip on a manual sprayer set at 15 gallons per acre. Distilled water was used and non-ionic surfactant (0.25% v/v). The treatments were applied when the corn was at the V4 stage of development. The plants were then destructively harvested 32 days after treatments and their number of roots, dry weight, and dry weight of nodal roots were evaluated.
# [3] = test system: Hybrid corn; experiment: Example 3: field study, root count of hybrid corn; conditions: 2.75 g ai/hectare at V4
# Experimental: A field study was conducted in order to determine the effects of GA3 on root development. Hybrid corn seeds were planted and were treated when the corn was at the V4 stage of development sixteen days after planting. The treatments were 0 or 2.75g ai/hectare of GA3 as formulated in RyzUp SmartGrass® using a TeeJet® 8002 VS spray tips with a backpack sprayer set at 15 gallons per acre. Distilled water was used and non-ionic surfactant (0.25% v/v). The plants were then destructively harvested and their root count was evaluated.
# [4] = Hybrid 1, 2.75 g ai/hectare at V4, 32 days after treatment
# [5] = Hybrid 2, 2.75 g ai/hectare at V4, 32 days after treatment
structure (smiles),measurement,setting,value
"C=C1C[C@]23C[C@@]1(O)CC[C@H]2[C@@]12C=C[C@H](O)[C@@](C)(C(=O)O1)[C@H]2[C@@H]3C(=O)O [GA3, gibberellic acid]",# of newest nodal roots exposed/6 plants,[1]; 8.4 g ai/ha GA3,29
same,# of newest nodal roots exposed/plant,[1]; 8.4 g ai/ha GA3,4.8
same,# of newest nodal roots exposed/plant with newest nodal roots present,[1]; 8.4 g ai/ha GA3,5.8
same,cm of newest nodal roots exposed/plant,[1]; 8.4 g ai/ha GA3,4.2 cm
same,cm of newest nodal roots exposed/plant with newest nodal roots,[1]; 8.4 g ai/ha GA3,5.0 cm
same,% of plants with newest nodal roots exposed,"[1]; 8.4 g ai/ha GA3, foliar spray",83%
same,# of newest nodal roots exposed/6 plants,[1]; 16.8 g ai/ha GA3,33
same,# of newest nodal roots exposed/plant,[1]; 16.8 g ai/ha GA3,5.5
same,# of newest nodal roots exposed/plant with newest nodal roots present,[1]; 16.8 g ai/ha GA3,5.5
same,cm of newest nodal roots exposed/plant,[1]; 16.8 g ai/ha GA3,5.3 cm
same,cm of newest nodal roots exposed/plant with newest nodal roots,[1]; 16.8 g ai/ha GA3,5.3 cm
same,% of plants with newest nodal roots exposed,"[1]; 16.8 g ai/ha GA3, foliar spray",100%
same,Dry weight of nodes 1 to 3,[2]; [4],2.5
same,Dry weight of nodes 4 to 7,[2]; [4],14.4
same,Total dry weight,[2]; [4],16.9
same,Total roots,[2]; [4],53.2
same,Dry weight of nodes 1 to 3,[2]; [5],1.7
same,Dry weight of nodes 4 to 7,[2]; [5],10.1
same,Total dry weight,[2]; [5],11.8
same,Total roots,[2]; [5],39
same,"root count, Treated Compared to Untreated % of Control",[3]; 1 day before treatment (baseline),100.2 % of Control
same,"root count, Treated Compared to Untreated % of Control",[3]; 4 days after treatment,105.6 % of Control
same,"root count, Treated Compared to Untreated % of Control",[3]; 7 days after treatment,105.5 % of Control
same,"root count, Treated Compared to Untreated % of Control",[3]; 13 days after treatment,107.8 % of Control
